# Laboratory results taken from patent publication US4638005A, “Monoquaternized pyrazinium compounds and their use as electron carriers in photosynthetic processes” (The Coca-Cola Company, priority 1983, dated 1987).
# Counter-ions that a name gives are not always drawn.
# Biological target: T1, nitrogenase (Azotobacter vinelandii, UniProt P00459)
# T1 construct: the nitrogenase sample was prepared from a culture of Azotobacter vinelandii; endogenous in cells; host or cells: Azotobacter vinelandii culture; French press lysate, 10,000 x g supernatant (crude)
# Experiment: Chloroplast-coupled reduction of acetylene to ethylene by nitrogenase (electron carrier bioassay of Benemann)
# Assay type: biochemical
# Conditions: Table I; acetylene reduction to ethylene
# Experimental: The activity of the pyrazinium compounds as electron carriers in an illuminated photocouple process using isolated chloroplasts and the reductive enzyme catalyst nitrogenease has been determined using the bioassay of Benemann, et al., Proc. Natl. Acad. Sci. USA, 64, 1079(1969). In this method, the carrier activity is measured as a function of nitrogenase reduction of acetylene to ethylene, the rate of production of ethylene being the direct measurement.
# (§1) For the bioassay, the nitrogenase sample was prepared from a culture of Azotobacter vinelandii grown to a cell density of about 1 g/l. The cells harvested by centrifugation were broken in a French press, cell debris spun off at 10,000 XG for 1 hr., and the supernatant containing 40 mg/ml protein was used in the bioassay experiments. […] chloroplasts from spinach leaves as described by Benemann were also used. The synthetic carriers were tested in aqueous solutions at concentrations of 2 mM, while the standard, clostridial ferredoxin, was used in 0.2 mM aqueous solution. The concentrations of carriers in the assay mixtures were chosen so as to guarantee carrier saturation conditions. Thus, the observed differences in rates of ethylene production from the substrate acetylene were assigned directly to variations in the efficiency of electron transfer from the illuminated chloroplast to the nitrogenase. The results obtained for acetylene reduction (nitrogen fixation) using the pyrazinium compounds of Examples 1 through 42 are summarized in Table I and are expressed as nmoles of ethylene produced per mg protein per minute.
# T1 sequence (P00459 2-290 limits assumed): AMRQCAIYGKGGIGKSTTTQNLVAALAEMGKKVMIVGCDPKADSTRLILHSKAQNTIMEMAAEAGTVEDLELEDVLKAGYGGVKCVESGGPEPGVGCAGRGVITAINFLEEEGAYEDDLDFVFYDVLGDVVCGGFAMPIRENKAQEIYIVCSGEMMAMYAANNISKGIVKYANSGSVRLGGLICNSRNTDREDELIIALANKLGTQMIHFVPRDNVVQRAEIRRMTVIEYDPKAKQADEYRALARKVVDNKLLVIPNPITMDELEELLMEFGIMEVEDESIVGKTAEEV
row,ACTIVITY RELATIVE TO FERREDOXIN (%),Compound
1,41%,"C[n+]1ccnc(CCC(O)CO)c1.[I-] (stereo not drawn) [Compound 1500, 1-Methyl-3-(3,4-dihydroxybutyl)pyrazinium iodide]"
2,33%,"C[n+]1ccnc(C(CC(O)CO)CC(O)CO)c1 (stereo not drawn) [Compound 1700, 1-Methyl-3-[4-(1,2,6,7-tetrahydroxyheptyl)]pyrazinium iodide]"
3,124%,"C[n+]1ccnc(C(CCCS(=O)(=O)[O-])CCCS(=O)(=O)O)c1 (stereo not drawn) [Compound 1800, 4-(1-Methyl-3-pyrazinyl)heptane-1,7-disulfonate sodium salt]"
4,79%,C[n+]1ccnc(CCCCS(=O)(=O)[O-])c1 [Compound 1801]
5,61%,C[n+]1ccnc(S(=O)(=O)[O-])c1 [Compound 2000]
6,55%,"C[n+]1ccnc(C(O)CO)c1.[I-] (stereo not drawn) [Compound 2200, 1-Methyl-3-(1,2-dihydroxyethyl)pyrazinium iodide]"
7,105%,CC(c1c[n+](C)ccn1)S(=O)(=O)[O-] (stereo not drawn) [Compound 2400]
8,98%,C[n+]1ccnc(CCS(=O)(=O)[O-])c1 [Compound 2600]
9,27%,"C[n+]1ccnc(CCC(=O)O)c1.[I-] [Compound 3900, 1-Methyl-3-(2-carboxyethyl)pyrazinium iodide]"

# Same assay, conditions: Table I; illuminated spinach chloroplasts; synthetic carriers 2 mM, clostridial ferredoxin 0.2 mM
row,ACTIVITY (nmoles C2 H4 /mg protein/min),Compound
1,5.5 nmoles C2 H4 /mg protein/min,"C[n+]1ccnc(CCC(O)CO)c1.[I-] (stereo not drawn) [Compound 1500, 1-Methyl-3-(3,4-dihydroxybutyl)pyrazinium iodide]"
2,4.5 nmoles C2 H4 /mg protein/min,"C[n+]1ccnc(C(CC(O)CO)CC(O)CO)c1 (stereo not drawn) [Compound 1700, 1-Methyl-3-[4-(1,2,6,7-tetrahydroxyheptyl)]pyrazinium iodide]"
3,16.7 nmoles C2 H4 /mg protein/min,"C[n+]1ccnc(C(CCCS(=O)(=O)[O-])CCCS(=O)(=O)O)c1 (stereo not drawn) [Compound 1800, 4-(1-Methyl-3-pyrazinyl)heptane-1,7-disulfonate sodium salt]"
4,10.7 nmoles C2 H4 /mg protein/min,C[n+]1ccnc(CCCCS(=O)(=O)[O-])c1 [Compound 1801]
5,8.3 nmoles C2 H4 /mg protein/min,C[n+]1ccnc(S(=O)(=O)[O-])c1 [Compound 2000]
6,7.5 nmoles C2 H4 /mg protein/min,"C[n+]1ccnc(C(O)CO)c1.[I-] (stereo not drawn) [Compound 2200, 1-Methyl-3-(1,2-dihydroxyethyl)pyrazinium iodide]"
7,14.2 nmoles C2 H4 /mg protein/min,CC(c1c[n+](C)ccn1)S(=O)(=O)[O-] (stereo not drawn) [Compound 2400]
8,13.2 nmoles C2 H4 /mg protein/min,C[n+]1ccnc(CCS(=O)(=O)[O-])c1 [Compound 2600]
9,3.7 nmoles C2 H4 /mg protein/min,"C[n+]1ccnc(CCC(=O)O)c1.[I-] [Compound 3900, 1-Methyl-3-(2-carboxyethyl)pyrazinium iodide]"
10,1.8 nmoles C2 H4 /mg protein/min,C=Cc1c[n+](C)ccn1 [Compound 5100]

# Same assay, conditions: Table III ranking
row,ETHYLENE FORMATION % Ferredoxin Activity,Compound
1,41%,"C[n+]1ccnc(CCC(O)CO)c1.[I-] (stereo not drawn) [Compound 1500, 1-Methyl-3-(3,4-dihydroxybutyl)pyrazinium iodide]"
2,33%,"C[n+]1ccnc(C(CC(O)CO)CC(O)CO)c1 (stereo not drawn) [Compound 1700, 1-Methyl-3-[4-(1,2,6,7-tetrahydroxyheptyl)]pyrazinium iodide]"
3,124%,"C[n+]1ccnc(C(CCCS(=O)(=O)[O-])CCCS(=O)(=O)O)c1 (stereo not drawn) [Compound 1800, 4-(1-Methyl-3-pyrazinyl)heptane-1,7-disulfonate sodium salt]"
4,79%,C[n+]1ccnc(CCCCS(=O)(=O)[O-])c1 [Compound 1801]
5,61%,C[n+]1ccnc(S(=O)(=O)[O-])c1 [Compound 2000]
6,55%,"C[n+]1ccnc(C(O)CO)c1.[I-] (stereo not drawn) [Compound 2200, 1-Methyl-3-(1,2-dihydroxyethyl)pyrazinium iodide]"
7,105%,CC(c1c[n+](C)ccn1)S(=O)(=O)[O-] (stereo not drawn) [Compound 2400]
8,98%,C[n+]1ccnc(CCS(=O)(=O)[O-])c1 [Compound 2600]
9,27%,"C[n+]1ccnc(CCC(=O)O)c1.[I-] [Compound 3900, 1-Methyl-3-(2-carboxyethyl)pyrazinium iodide]"
10,13%,C=Cc1c[n+](C)ccn1 [Compound 5100]

# Same assay, conditions: Table IV; acetylene reduction
row,% FERREDOXIN ACTIVITY,Compound
1,41%,"C[n+]1ccnc(CCC(O)CO)c1.[I-] (stereo not drawn) [Compound 1500, 1-Methyl-3-(3,4-dihydroxybutyl)pyrazinium iodide]"
2,33%,"C[n+]1ccnc(C(CC(O)CO)CC(O)CO)c1 (stereo not drawn) [Compound 1700, 1-Methyl-3-[4-(1,2,6,7-tetrahydroxyheptyl)]pyrazinium iodide]"
3,124%,"C[n+]1ccnc(C(CCCS(=O)(=O)[O-])CCCS(=O)(=O)O)c1 (stereo not drawn) [Compound 1800, 4-(1-Methyl-3-pyrazinyl)heptane-1,7-disulfonate sodium salt]"
4,79%,C[n+]1ccnc(CCCCS(=O)(=O)[O-])c1 [Compound 1801]
5,61%,C[n+]1ccnc(S(=O)(=O)[O-])c1 [Compound 2000]
6,55%,"C[n+]1ccnc(C(O)CO)c1.[I-] (stereo not drawn) [Compound 2200, 1-Methyl-3-(1,2-dihydroxyethyl)pyrazinium iodide]"
7,105%,CC(c1c[n+](C)ccn1)S(=O)(=O)[O-] (stereo not drawn) [Compound 2400]
8,98%,C[n+]1ccnc(CCS(=O)(=O)[O-])c1 [Compound 2600]
9,13%,C=Cc1c[n+](C)ccn1 [Compound 5100]

# Biological target: T1, nitrogenase
# Experiment: Chloroplast-coupled evolution of hydrogen by nitrogenase in the absence of substrate
# Assay type: biochemical
# Conditions: Table II; hydrogen evolution
# Experimental: as §1
# It has been recognized for sometime the connection existing between hydrogen metabolism and nitrogen fixation. […] When nitrogenase was purified extensively, as mentioned above, it became apparent that in addition to nitrogen, nitrogenase also catalyzed the reduction of protons. The evolution of hydrogen is particularly active in the absence of the normal substrates for nitrogenase (nitrogen, acetylene, cyanide, azide, etc.), and is dependent upon a strong reductant and adenosine triphosphate hydrolysis. Since hydrogen evolution is not inhibited by CO, but reduction of nitrogen and other substrates is, the reduction of protons presumably occurs at a site other than the site of nitrogen reduction, H. C. Winter, et. al., Ann Rev. Biochem, 45, 409 (1976). Accordingly, with the same bioassay system and with exclusion of nitrogen, and acetylene, the activity of the pyrazinium compounds to act as carriers for production of hydrogen has been determined.
# The results of this study, which are summarized in Table II, indicate that the pyrazinium salts that mediate the reduction of acetylene with electrons from the photoexcited chloroplast, are also mediating the reduction of protons by the nitrogenase.
row,ACTIVITY RELATIVE TO FERREDOXIN (%),Compound
1,86%,"C[n+]1ccnc(CCC(O)CO)c1.[I-] (stereo not drawn) [Compound 1500, 1-Methyl-3-(3,4-dihydroxybutyl)pyrazinium iodide]"
2,62%,"C[n+]1ccnc(C(CC(O)CO)CC(O)CO)c1 (stereo not drawn) [Compound 1700, 1-Methyl-3-[4-(1,2,6,7-tetrahydroxyheptyl)]pyrazinium iodide]"
3,129%,"C[n+]1ccnc(C(CCCS(=O)(=O)[O-])CCCS(=O)(=O)O)c1 (stereo not drawn) [Compound 1800, 4-(1-Methyl-3-pyrazinyl)heptane-1,7-disulfonate sodium salt]"
4,106%,C[n+]1ccnc(CCCCS(=O)(=O)[O-])c1 [Compound 1801]
5,100%,C[n+]1ccnc(S(=O)(=O)[O-])c1 [Compound 2000]
6,98%,"C[n+]1ccnc(C(O)CO)c1.[I-] (stereo not drawn) [Compound 2200, 1-Methyl-3-(1,2-dihydroxyethyl)pyrazinium iodide]"
7,128%,CC(c1c[n+](C)ccn1)S(=O)(=O)[O-] (stereo not drawn) [Compound 2400]
8,154%,C[n+]1ccnc(CCS(=O)(=O)[O-])c1 [Compound 2600]
9,45%,"C[n+]1ccnc(CCC(=O)O)c1.[I-] [Compound 3900, 1-Methyl-3-(2-carboxyethyl)pyrazinium iodide]"

# Same assay, conditions: Table II; hydrogen evolution, no nitrogen or acetylene; synthetic carriers 2 mM, ferredoxin 0.2 mM
row,ACTIVITY (nmoles H2 /mg protein/min),Compound
1,22.9 nmoles H2 /mg protein/min,"C[n+]1ccnc(CCC(O)CO)c1.[I-] (stereo not drawn) [Compound 1500, 1-Methyl-3-(3,4-dihydroxybutyl)pyrazinium iodide]"
2,16.6 nmoles H2 /mg protein/min,"C[n+]1ccnc(C(CC(O)CO)CC(O)CO)c1 (stereo not drawn) [Compound 1700, 1-Methyl-3-[4-(1,2,6,7-tetrahydroxyheptyl)]pyrazinium iodide]"
3,34.4 nmoles H2 /mg protein/min,"C[n+]1ccnc(C(CCCS(=O)(=O)[O-])CCCS(=O)(=O)O)c1 (stereo not drawn) [Compound 1800, 4-(1-Methyl-3-pyrazinyl)heptane-1,7-disulfonate sodium salt]"
4,28.4 nmoles H2 /mg protein/min,C[n+]1ccnc(CCCCS(=O)(=O)[O-])c1 [Compound 1801]
5,26.6 nmoles H2 /mg protein/min,C[n+]1ccnc(S(=O)(=O)[O-])c1 [Compound 2000]
6,26.2 nmoles H2 /mg protein/min,"C[n+]1ccnc(C(O)CO)c1.[I-] (stereo not drawn) [Compound 2200, 1-Methyl-3-(1,2-dihydroxyethyl)pyrazinium iodide]"
7,34.1 nmoles H2 /mg protein/min,CC(c1c[n+](C)ccn1)S(=O)(=O)[O-] (stereo not drawn) [Compound 2400]
8,41.2 nmoles H2 /mg protein/min,C[n+]1ccnc(CCS(=O)(=O)[O-])c1 [Compound 2600]
9,11.9 nmoles H2 /mg protein/min,"C[n+]1ccnc(CCC(=O)O)c1.[I-] [Compound 3900, 1-Methyl-3-(2-carboxyethyl)pyrazinium iodide]"
10,2.8 nmoles H2 /mg protein/min,C=Cc1c[n+](C)ccn1 [Compound 5100]

# Same assay, conditions: Table III ranking
row,HYDROGEN EVOLUTION % Ferredoxin Activity,Compound
1,10%,C=Cc1c[n+](C)ccn1 [Compound 5100]

# System: not listed separately
# Experiment: Polarographic half-wave potential (first wave reduction)
# Assay type: physicochemical
# Conditions: 0.1 M phosphate buffer pH 7.55, 25° C.
# Description: Sci., 65, 1471(1976). Therefore, it was of interest to measure polarographically the half-wave potentials of the several pyrazinium salts under consideration, to determine the possible effect of structure upon their redox potentials.
row,E1/2 vs. SCE (mV),Compound
1,-683 mV,"C[n+]1ccnc(CCC(O)CO)c1.[I-] (stereo not drawn) [Compound 1500, 1-Methyl-3-(3,4-dihydroxybutyl)pyrazinium iodide]"
2,-715 mV,"C[n+]1ccnc(C(CC(O)CO)CC(O)CO)c1 (stereo not drawn) [Compound 1700, 1-Methyl-3-[4-(1,2,6,7-tetrahydroxyheptyl)]pyrazinium iodide]"
3,-683 mV,"C[n+]1ccnc(C(CCCS(=O)(=O)[O-])CCCS(=O)(=O)O)c1 (stereo not drawn) [Compound 1800, 4-(1-Methyl-3-pyrazinyl)heptane-1,7-disulfonate sodium salt]"
4,-676 mV,C[n+]1ccnc(CCCCS(=O)(=O)[O-])c1 [Compound 1801]
5,-573 mV,C[n+]1ccnc(S(=O)(=O)[O-])c1 [Compound 2000]
6,-704 mV,"C[n+]1ccnc(C(O)CO)c1.[I-] (stereo not drawn) [Compound 2200, 1-Methyl-3-(1,2-dihydroxyethyl)pyrazinium iodide]"
7,-701 mV,CC(c1c[n+](C)ccn1)S(=O)(=O)[O-] (stereo not drawn) [Compound 2400]
8,-730 mV,C[n+]1ccnc(CCS(=O)(=O)[O-])c1 [Compound 2600]
